The target in test [1] is T1, OMGnT (Homo sapiens, UniProt Q8WZA1, M623V).
T1 construct: a cDNA of approximately 2.0 kb encoding the full length of human OMGnT is inserted; expressed in transfected cells; host or cells: HEK293T
Put plainly: OMGnT activity of microsomal fractions of HEK293T cells transfected with full-length human OMGnT plasmid. Format: biochemical. How it is done:
(§1) The enzyme solution was added to 140 mM MES [2-(N-morpholino) ethanesulfonic acid] buffer (pH 7.0) containing 0.4 mM Man-peptide, 0.2 mM UDP-[^3H]GlcNAc (up to 228,000 dpm/nmol), 10 mM MnCl2, 5 mM AMP, 200 mM GlcNAc, 2%(w/v) Triton X-100, 10% glycerol, 2 μg/ml antipain, 2 μg/ml chymostatin, 3 μg/ml pepstatin A, 2 μg/ml leupeptin, 1 mM benzamidine-HCl, and 1 mM PMSF (phenylmethylsulfonyl fluoride) to prepare 50 μl of reaction solution. After the reaction at 37° C. for 3 hours, the reaction was terminated by 3 minutes of boiling. The reaction mixture was then filtered with a filter Ultrafree-MC (Millipore) having a pore size of 0.22 μm to remove solids, and analyzed by Wakopak 5C18-200 column (4.6×250 mm, Wako Pure Chemical Industries, Ltd.). The separation was carried out using concentration gradient with Solution A and Solution B at a flow rate of 1.0 ml/min. […] Peptide detection was carried out at 214 nm, and the radioactivity of each fraction was assayed using a liquid scintillation counter.
The mixture was centrifuged for 10 minutes at 900×g, and then the obtained supernatant was centrifuged for 1 hour at 100,000×g, thereby obtaining a microsomal fraction as a precipitate. In the case of preparing solubilized enzyme, the precipitate was suspended in 140 mM MES buffer (pH 7.0) (referred to as solubilization buffer) containing 5 mM AMP, 200 mM GlcNAc, 2%(w/v) Triton X-100, 10% glycerol, 2 μg/ml antipain, 2 μg/ml chymostatin, 3 μg/ml pepstatin A, 2 μg/ml leupeptin, 1 mM benzamidine-HCl, and 1 mM PMSF(phenylmethylsulfonyl fluoride) and sonicated. Thereafter, the resultant was centrifuged for 1 hour at 100,000×g and the obtained supernatant was used.
The expression plasmid was transiently expressed in an HEK293T cell in the same manner as described in Example 3. 15 μg of plasmid was transfected to 50–70% confluent cells in a 10 cm petri dish. After overnight cultivation, the medium was changed. After a further 48-hour cultivation, cells were collected.
A microsomal fraction was prepared from cells by the method described in Example 2, and OMGnT activity of a soluble fraction and an insoluble fraction were assayed by the method described in Example 1.

Test [2] deals with T2, OMGnT derived from a newborn rat brain (Rattus norvegicus, UniProt Q5XIN7).
T2 construct: from tissue; host or cells: newborn rat brain
T2 sequence (Q5XIN7 whole entry): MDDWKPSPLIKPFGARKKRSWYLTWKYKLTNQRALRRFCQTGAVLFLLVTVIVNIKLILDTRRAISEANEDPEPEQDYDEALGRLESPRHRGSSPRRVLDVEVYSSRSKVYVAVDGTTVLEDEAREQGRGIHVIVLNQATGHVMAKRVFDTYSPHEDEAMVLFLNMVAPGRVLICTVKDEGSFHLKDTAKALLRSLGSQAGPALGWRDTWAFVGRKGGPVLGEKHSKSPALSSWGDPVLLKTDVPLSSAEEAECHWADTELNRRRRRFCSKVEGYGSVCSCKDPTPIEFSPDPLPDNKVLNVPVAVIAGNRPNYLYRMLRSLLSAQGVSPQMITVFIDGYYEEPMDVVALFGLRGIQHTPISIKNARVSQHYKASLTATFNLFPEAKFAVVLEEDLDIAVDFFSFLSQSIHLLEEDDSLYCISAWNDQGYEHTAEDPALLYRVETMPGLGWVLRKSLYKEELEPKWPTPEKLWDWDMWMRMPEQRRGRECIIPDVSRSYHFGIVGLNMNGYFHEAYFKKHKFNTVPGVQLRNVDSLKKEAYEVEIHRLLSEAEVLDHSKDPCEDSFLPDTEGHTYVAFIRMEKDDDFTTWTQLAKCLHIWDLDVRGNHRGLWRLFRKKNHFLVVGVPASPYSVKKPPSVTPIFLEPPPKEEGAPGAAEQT
In words: Divalent cation requirement for OMGnT activity. Format: biochemical. As to conditions: for effect on OMGnT activity relative to Mn2+: 10 mM for each divalent cation; for Relative activity of OMGnT (%): each additive 10 mM, activity with 10 mM MnCl2 taken as 100%.
Method: *OMGnT activity was determined by adding each of the metal ions (10 mM) to a OMGnT sample. The figures in the Table are expressed in percent, taking the activity when 10 mM MnCl2 is added as 100%.

For test [3], the system named is OMGnT. In words: OMGnT activity in serum-free medium of HEK293T cells expressing solubilized enzymes. Format: biochemical, human. As to conditions: serum-free medium of HEK293T transfectants. How it is done: as §1
Each secretory expression plasmid was transiently expressed in a HEK293T cell derived from human embryonic kidney. Usually, HEK293T cells were cultured in D-MEM (Gibco, #11995-065) containing 10% Fetal Calf Serum (Hyclone), 10 mM MEM Non-Essential Amino Acids solution (Gibco), 2 mM Glutamine (Gibco), and 100 units/ml Penicillin/100 μg/ml Streptomycin (Gibco). […]

Another test addresses T3, GnT-I (Homo sapiens, UniProt P26572).
T3 construct: Ig kappa chain secretory signal (N); made in house; host or cells: HEK293T (transient, secreted into serum-free medium)
T3 sequence (P26572 39-445 limits assumed): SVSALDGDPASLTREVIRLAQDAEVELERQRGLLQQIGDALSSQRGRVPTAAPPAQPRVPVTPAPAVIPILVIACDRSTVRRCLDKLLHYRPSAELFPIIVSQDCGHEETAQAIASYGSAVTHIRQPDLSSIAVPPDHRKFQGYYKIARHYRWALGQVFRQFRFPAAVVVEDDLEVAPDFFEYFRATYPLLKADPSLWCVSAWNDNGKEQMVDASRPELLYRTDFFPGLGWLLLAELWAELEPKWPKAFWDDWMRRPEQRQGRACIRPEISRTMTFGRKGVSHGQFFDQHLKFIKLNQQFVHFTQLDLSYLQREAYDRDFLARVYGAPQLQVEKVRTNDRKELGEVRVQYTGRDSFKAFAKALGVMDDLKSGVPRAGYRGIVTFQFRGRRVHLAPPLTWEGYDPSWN
In words: GnT-I activity assay of solubilized enzymes. The conditions noted are these: method of Reference Example 2. Format: biochemical. How it is done: (§2) The activity of GnT-1 was assayed with a method by Yoshida et al. [Yoshida, S., Suzuki, M., Yamano, S., Takeuchi, M., Ikenaga, H., Kioka, N., Sakai, H., and Komano, T., Glycobiology, (1999), 9, 53–58] as described below. A 20 μl reaction solution was prepared by adding an enzyme source thereto so as to have a final concentration of 100 mM MES (pH 6.0), 20 mM MnCl2, 5 μM Manα1–6(Manα1–3)Manα1–6(Manα1–3)Manβ1–4GlcNAcβ1–4GlcNAc-PA(M5GN2-PA; Takara Shuzo, PA-Sugar Chain 017), 1 mM UDP-GlcNAc, 100 mM GlcNAc, 5 mM AMP, 1% Triton X-100, and 0.2% BSA. The reaction solution was incubated at 37° C. for 1 hour, and the reaction was terminated in boiling water. Thereafter, the reaction solution was analyzed by a reverse phase HPLC (Cosmosil 5C18-AR column) available from Nacalai Tesque.
(§3) When Manα1–6(Manα1–3)Manβ1–4GlcNAcβ1–4GlcNAc-PA (M3GN2-PA; Takara Shuzo, PA-Sugar Chain 016) was used as a sugar receptor, the same method was employed for analysis.

Another test has as its target T4, His-Xpress-sOMGnT(S) (Homo sapiens, UniProt Q8WZA1, M623V).
T4 construct: Ig kappa chain secretory signal (N); made in house; host or cells: HEK293T (transient, secreted into serum-free medium)
T4 sequence (Q8WZA1 247-660 M623V): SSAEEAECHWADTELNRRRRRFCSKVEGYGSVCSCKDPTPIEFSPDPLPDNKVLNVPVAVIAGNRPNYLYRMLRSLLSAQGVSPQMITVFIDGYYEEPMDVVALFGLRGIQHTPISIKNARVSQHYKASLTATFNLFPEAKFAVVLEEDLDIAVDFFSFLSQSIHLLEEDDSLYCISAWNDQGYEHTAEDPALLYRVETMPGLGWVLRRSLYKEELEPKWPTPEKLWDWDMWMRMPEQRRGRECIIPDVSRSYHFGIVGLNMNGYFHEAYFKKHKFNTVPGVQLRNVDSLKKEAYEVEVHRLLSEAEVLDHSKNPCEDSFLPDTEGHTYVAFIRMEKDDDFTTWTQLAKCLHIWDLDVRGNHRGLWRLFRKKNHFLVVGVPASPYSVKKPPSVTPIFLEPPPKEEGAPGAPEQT
In words: Substrate specificity and kinetic parameters of solubilized human OMGnT enzyme (S). Format: biochemical. The conditions noted are these: for OMGnT relative activity (%) His-Xpress-sOMGnT(S): as sugar receptor, activity with Man-peptide regarded as 100%. How it is done:
(§4) […] […] The reaction mixture was then filtered with a filter Ultrafree-MC (Millipore) having a pore size of 0.22 μm to remove solids, and analyzed by Wakopak 5C18-200 column (4.6×250 mm, Wako Pure Chemical Industries, Ltd.). The separation was carried out using concentration gradient with Solution A and Solution B at a flow rate of 1.0 ml/min. […] Peptide detection was carried out at 214 nm, and the radioactivity of each fraction was assayed using a liquid scintillation counter.
as §2, §3

A further test deals with T5, His-Xpress-sOMGnT(L) (Homo sapiens, UniProt Q8WZA1, M623V).
T5 construct: 595 amino acids from 66: Ser thereof (66: Ser to 660: Thr), respectively; Ig kappa chain secretory signal (N); made in house; host or cells: HEK293T (transient, secreted into serum-free medium)
T5 sequence (Q8WZA1 66-660 M623V): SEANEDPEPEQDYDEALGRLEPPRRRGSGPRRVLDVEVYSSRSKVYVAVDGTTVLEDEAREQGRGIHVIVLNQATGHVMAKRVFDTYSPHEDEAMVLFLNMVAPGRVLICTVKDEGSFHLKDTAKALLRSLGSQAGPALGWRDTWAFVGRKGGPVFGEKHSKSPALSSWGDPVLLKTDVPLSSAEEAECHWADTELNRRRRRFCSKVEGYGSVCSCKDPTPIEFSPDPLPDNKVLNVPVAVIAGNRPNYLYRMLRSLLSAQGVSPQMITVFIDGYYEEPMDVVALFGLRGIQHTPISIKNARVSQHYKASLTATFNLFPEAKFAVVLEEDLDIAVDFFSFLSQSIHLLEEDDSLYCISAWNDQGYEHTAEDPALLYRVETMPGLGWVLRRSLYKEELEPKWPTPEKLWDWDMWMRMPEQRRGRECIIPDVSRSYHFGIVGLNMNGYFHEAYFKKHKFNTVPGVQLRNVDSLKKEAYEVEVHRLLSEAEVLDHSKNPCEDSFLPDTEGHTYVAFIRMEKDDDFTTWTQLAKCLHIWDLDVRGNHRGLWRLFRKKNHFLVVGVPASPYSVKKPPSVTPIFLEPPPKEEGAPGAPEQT
In words: Substrate specificity and kinetic parameters of solubilized human OMGnT enzyme (L). Format: biochemical. As to conditions: for OMGnT relative activity (%) His-Xpress-sOMGnT(L): as sugar receptor, activity with Man-peptide regarded as 100%. On the procedure: as §4, §2, §3

For test [4], the system named is OMGnT. In words: Substrate specificity of OMGnT expressed in animal cells (summary of properties). Format: biochemical, human. The conditions noted are these: reactivity toward mannosylnanopeptide regarded as 100%. The text has this:
The biochemical properties of the OMGnT: an enzyme protein massively expressed in animal cells as described above are as follows.

The results in this text go back to patent US7217548B2, “N-acetylglucosaminlytransferase and polynucleotide encoding the same” (National Institute of Advanced Industrial Science and …, priority 2000, dated 2007).

“Also recorded” adds a separate entry of the source. Like-named read-outs stand apart in the source and are kept apart here. Peptide text beside a SMILES is read from it. * marks the point of attachment. αMan = OC[C@H]1O[C@H](*)[C@@H](O)[C@@H](O)[C@@H]1O

T1 sequence (Q8WZA1 whole entry M623V): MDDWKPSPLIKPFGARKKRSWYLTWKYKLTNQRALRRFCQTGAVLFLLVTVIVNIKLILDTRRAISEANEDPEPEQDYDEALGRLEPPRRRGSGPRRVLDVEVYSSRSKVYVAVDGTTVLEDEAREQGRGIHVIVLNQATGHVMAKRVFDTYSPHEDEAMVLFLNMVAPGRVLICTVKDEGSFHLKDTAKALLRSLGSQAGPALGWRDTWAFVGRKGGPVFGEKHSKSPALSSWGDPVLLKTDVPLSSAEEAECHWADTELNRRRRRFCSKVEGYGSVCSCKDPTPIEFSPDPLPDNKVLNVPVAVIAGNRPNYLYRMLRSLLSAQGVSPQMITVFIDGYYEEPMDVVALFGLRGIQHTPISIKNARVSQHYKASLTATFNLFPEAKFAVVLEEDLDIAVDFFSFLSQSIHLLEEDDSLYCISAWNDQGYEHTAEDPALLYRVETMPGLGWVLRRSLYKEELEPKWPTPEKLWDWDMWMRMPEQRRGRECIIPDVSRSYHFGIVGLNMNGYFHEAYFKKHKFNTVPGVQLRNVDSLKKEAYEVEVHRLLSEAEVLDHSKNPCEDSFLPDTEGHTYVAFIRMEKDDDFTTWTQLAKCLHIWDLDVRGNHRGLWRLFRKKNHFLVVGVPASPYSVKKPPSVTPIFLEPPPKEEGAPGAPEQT

“OMGnT/pcDNA3.1zeo: expression plasmid for full-length human OMGnT (SEQ ID NO: 2), expressed in HEK293T; microsomal fractions assayed”: the “OMGnT activity, times higher than control (no plasmid), insoluble fraction” value with OMGnT [1] (insoluble fraction) is given as approximately 140 times. Further, the “OMGnT activity, Insoluble fraction” value with OMGnT [1] (insoluble fraction of microsomal fraction, HEK293T) is reported as 243.9 pmol/hr/mg protein. For the same compound, in the test with OMGnT [1] (soluble fraction), the “OMGnT activity, times higher than control (no plasmid), soluble fraction” value is given as “about 120 times”. Besides, the “OMGnT activity, Soluble fraction” value in the test with OMGnT [1] (soluble fraction of microsomal fraction, HEK293T) is 182.7 pmol/hr/mg protein. Further, the “OMGnT activity, Total” value with OMGnT [1] (soluble plus insoluble fraction) is on record as 426.6 pmol/hr/mg protein.

Regarding `[Cl-].[Cl-].[Mg+2]` [MgCl2], in test [2], the “effect on OMGnT activity relative to Mn2+” value is “approximately 40%” and the “Relative activity of OMGnT (%)” value is given as 39%.

With “His-Xpress-sOMGnT(L): solubilized human OMGnT, 595 amino acids 66:Ser to 660:Thr, secreted from HEK293T; plasmid named in Table 3”, in the test with OMGnT [3], the OMGnT activity amounted to 15 pmol/hr/mg protein and the “OMGnT activity (in words)” value was “significantly high OMGnT activity”. Also, the “GnT-I activity (in words)” value in the test with GnT-I is recorded as “did not exhibit activity at all”.

As to `[Cl][Mn][Cl]` [MnCl2], in test [2], the “concentration range at which the effect on OMGnT activity is the greatest” value lay within 1 to 10 mM and the “Relative activity of OMGnT (%)” value is given as 100%. In addition, in test [2] (listed as Mn^2+), the “effect on OMGnT activity (in words)” value is “greatest effect; also recorded: maximum effect”.

With `[Ca+2].[Cl-].[Cl-]` [CaCl2], in test [2], the “effect on OMGnT activity (in words)” value is reported as “weak effect”, the “effect on OMGnT activity relative to Mn2+” value was “approximately 15%” and the “Relative activity of OMGnT (%)” value turned out to be 15%.

As for “Manα1–6(Manα1–3)Manα1–6(Manα1–3)Manβ1–4GlcNAcβ1–4GlcNAc-PA [M5GN2-PA]”, the “OMGnT relative activity (%) His-Xpress-sOMGnT(S)” value on His-Xpress-sOMGnT(S) is reported as 0%. Besides, the “OMGnT relative activity (%) His-Xpress-sOMGnT(L)” value on His-Xpress-sOMGnT(L) is 0%.

On to “Manα1–6(Manα1–3)Manβ1–4GlcNAcβ1–4GlcNAc-PA [M3GN2-PA]”, for which the “OMGnT relative activity (%) His-Xpress-sOMGnT(S)” value at His-Xpress-sOMGnT(S) is reported as 0%. The “OMGnT relative activity (%) His-Xpress-sOMGnT(L)” value at His-Xpress-sOMGnT(L) came to 0%.

What is called Km is the substrate concentration at which the rate is half of its maximum. For the compound `CC(=O)N[C@H]1[C@@H](OP(=O)(O)OP(=O)(O)OC[C@H]2O[C@@H](n3ccc(=O)[nH]c3=O)[C@H](O)[C@@H]2O)O[C@H](CO)[C@@H](O)[C@@H]1O` [UDP-GlcNAc], the Km on His-Xpress-sOMGnT(S) (125 mM MOPS pH7.3, 0.4 mM Man-peptide, 7.5 mM MnCl2, 37° C., 2 hours, read-out: apparent Km value of His-Xpress-sOMGnT(S) toward UDP-GlcNAc) was 570 µM; on His-Xpress-sOMGnT(L) (125 mM MOPS pH7.3, 0.4 mM Man-peptide, 7.5 mM MnCl2, 37° C., 2 hours, read-out: apparent Km value of His-Xpress-sOMGnT(L) toward UDP-GlcNAc), 730 µM.

Regarding `O=[N+]([O-])c1ccc(O[C@H]2O[C@H](CO)[C@@H](O)[C@H](O)[C@@H]2O)cc1` [p-nitrophenyl Man, p-nitrophenyl mannose], the “OMGnT relative activity (%) His-Xpress-sOMGnT(S)” value on His-Xpress-sOMGnT(S) is 0%. Also, the “OMGnT relative activity (%) His-Xpress-sOMGnT(L)” value at His-Xpress-sOMGnT(L) came out at 0%. Besides, the “reactivity of the enzyme toward sugar receptor” value in the test with OMGnT [4] is 0%.

For the compound `CC(=O)N[C@@H](C)C(=O)N[C@@H](C)C(=O)N1CCC[C@H]1C(=O)N[C@H](C(=O)N1CCC[C@H]1C(=O)N[C@H](C(=O)N[C@@H](C)C(=O)N[C@@H](C)C(=O)N1CCC[C@H]1C(N)=O)C(C)C)[C@@H](C)O[C@H]1O[C@H](CO)[C@@H](O)[C@H](O)[C@@H]1O` [Man-peptide, Ac-Ala-Ala-Pro-Thr(Man)-Pro-Val-Ala-Ala-Pro-NH2] (Ac-AAPT(αMan)PVAAP-NH2), the “OMGnT relative activity (%) His-Xpress-sOMGnT(S)” value at His-Xpress-sOMGnT(S) came out at 100%. The “OMGnT relative activity (%) His-Xpress-sOMGnT(L)” value on His-Xpress-sOMGnT(L) is given as 100%.
